The record followed here is DBAASP.

Among the test systems are Escherichia coli BW25113; Escherichia coli UB1005; Candida albicans; Streptococcus pneumoniae; Pseudomonas putida; Salmonella typhimurium; Staphylococcus aureus; Escherichia coli; Serratia marcescens; Saccharomyces cerevisiae; Streptococcus mutans; Bacillus subtilis; Cryptococcus neoformans.
Holding throughout (assay): ≥ marks a high value that may be exact or a test limit, other limits are often not marked, values filed in µg/mL are converted to µM
The subject of assay [1] is Salmonella enterica serovar Typhimurium.
The test system of assay [2] is Pseudomonas aeruginosa 253.
Assay [3] relates to Enterococcus faecalis ATCC 29212.
Assay [4] concerns Pseudomonas aeruginosa 910.
The subject of assay [5] is Pseudomonas aeruginosa 919.
The subject of assay [6] is Staphylococcus epidermidis.
Assay [7] concerns Pseudomonas aeruginosa H103.
In assay [8] the test system is Staphylococcus aureus ATCC 25923.
Assay [9] deals with Pseudomonas aeruginosa PAO1.
Assay [10] has as its system Staphylococcus aureus ATCC 43300.
In assay [11] the test system is Pseudomonas aeruginosa ATCC 27853.
Assay [12] has as its system Acinetobacter baumannii ATCC 19606.
Assay [13] concerns Escherichia coli ATCC 25922.
Assay [14] deals with Cryptococcus neoformans ATCC 208821.
Assay [15] has as its system Klebsiella pneumoniae ATCC 700603.
Assay [16] concerns Candida albicans ATCC 90028.
For assay [17], the system named is Klebsiella aerogenes ATCC 13048.
Assay [18] has as its system Bacillus cereus ATCC 11778.
For assay [19], the system named is Salmonella enterica subsp. enterica serovar Typhimurium ATCC 14028.
The test system of assay [20] is Staphylococcus aureus ATCC 29213.
In assay [21] the test system is Enterococcus faecalis CIP 76.117.

≈ marks a conversion by molar mass, not a printed value. Some results are limits rather than exact numbers.

In the case of `CC[C@H](C)[C@H](NC(=O)[C@@H]1CCCN1C(=O)[C@@H]1CCCN1C(=O)[C@H](CCCN=C(N)N)NC(=O)[C@H](Cc1c[nH]c2ccccc12)NC(=O)[C@@H](N)CCCN=C(N)N)C(=O)N[C@@H](CCCN=C(N)N)C(=O)N[C@@H](CCCN=C(N)N)C(=O)N1CCC[C@H]1C(=O)N1CCC[C@H]1C(=O)N[C@H](C(=O)N[C@@H](CCCN=C(N)N)C(=O)N1CCC[C@H]1C(=O)N1CCC[C@H]1C(=O)N[C@@H](Cc1ccccc1)C(=O)N[C@@H](Cc1ccc(O)cc1)C(=O)N1CCC[C@H]1C(=O)O)[C@@H](C)CC` [RWRPPIRRPPIRPPFYP], the MIC – broadly, the smallest concentration in the dilution series that meets the test's criterion for growth inhibition – against Escherichia coli BW25113 worked out at 16 µM (≈ 35.2 µg/mL).
`CC[C@H](C)[C@H](NC(=O)[C@H](CCCN=C(N)N)NC(=O)[C@H](CCCN=C(N)N)NC(=O)[C@H](CC(C)C)NC(=O)[C@@H](N)CCCN=C(N)N)C(=O)N[C@H](C(=O)N[C@H](C(=O)N[C@H](C(=O)N[C@@H](CCCN=C(N)N)C(=O)N[C@H](C(=O)N[C@@H](C)C(=O)N[C@@H](CCCN=C(N)N)C(=O)O)C(C)C)[C@@H](C)CC)C(C)C)C(C)C` [RLRRIVVIRVAR]: the MIC in [1] was 5.31 µM (≈ 8 µg/mL); in assay [2], 16 µM (≈ 24.1 µg/mL); in assay [3], 5.31 µM (≈ 8 µg/mL); in assay [4], at least 32 µM; in assay [5] it was 16 µM (≈ 24.1 µg/mL); in assay [6] it was 1.33 µM (≈ 2 µg/mL). Moreover, the minimal inhibitory concentration (MIC) is 2.65 µM (≈ 4 µg/mL) against Escherichia coli UB1005; 5.31 µM (≈ 8 µg/mL) in assay [7]; 5.31 µM (≈ 8 µg/mL) in assay [8]; 10.6 µM (≈ 16 µg/mL) against Candida albicans; 16 µM (≈ 24.1 µg/mL) in assay [9].
`NC(=O)CC[C@H](NC(=O)[C@H](Cc1cnc[nH]1)NC(=O)[C@H](CO)NC(=O)[C@H](CCCN=C(N)N)NC(=O)[C@H](Cc1ccccc1)NC(=O)[C@H](Cc1cnc[nH]1)NC(=O)[C@H](CCCN=C(N)N)NC(=O)[C@H](Cc1cnc[nH]1)NC(=O)[C@H](Cc1cnc[nH]1)NC(=O)[C@@H](N)CO)C(=O)N[C@@H](CS)C(=O)N[C@@H](CCCN=C(N)N)C(=O)O` [SHHRHFRSHQCR]: the MIC in [10] was over 20.2 µM; in assay [11], over 20.2 µM; in [12], over 20.2 µM; in assay [13], over 20.2 µM; in assay [14], 20.2 µM (≈ 32 µg/mL); in assay [15], over 20.2 µM. Also, in [16], the minimal inhibitory concentration (MIC) is 20.2 µM (≈ 32 µg/mL).
As to `CC[C@H](C)[C@H](N)C(=O)N[C@@H](CC(C)C)C(=O)NCC(=O)N[C@@H](C)C(=O)N[C@@H](C)C(=O)N[C@@H](Cc1c[nH]c2ccccc12)C(=O)N[C@@H](CC(N)=O)C(=O)NCC(=O)N[C@@H](C)C(=O)N[C@@H](CCCCN)C(=O)N[C@@H](CO)C(=O)N[C@@H](CC(C)C)C(=O)N[C@@H](Cc1ccccc1)C(N)=O` [ILGAAWNGAKSLF], the MIC is at least 74.2 µM in assay [17]; at least 74.2 µM in assay [18]; over 74.2 µM in assay [13]; over 74.2 µM in assay [19]; over 74.2 µM in assay [20].
For the compound `CC[C@H](C)[C@H](NC(=O)[C@H](CCC(N)=O)NC(=O)[C@@H]1CCCN1C(=O)[C@H](CC(=O)O)NC(=O)[C@H](Cc1ccccc1)NC(=O)[C@@H](NC(=O)[C@H](Cc1cnc[nH]1)NC(=O)[C@H](Cc1cnc[nH]1)NC(=O)[C@H](Cc1ccccc1)NC(=O)[C@@H](N)Cc1ccccc1)[C@@H](C)CC)C(=O)N[C@@H](CCCCN)C(=O)N[C@@H](CO)C(=O)NCC(=O)N[C@@H](CC(C)C)C(=O)N[C@@H](CC(C)C)C(=O)N[C@H](C(=O)N[C@@H](CO)C(=O)N[C@@H](CCSC)C(=O)N[C@@H](Cc1ccc(O)cc1)C(=O)N[C@@H](CC(=O)O)C(=O)O)C(C)C` [FFHHIFDPQIKSGLLVSMYD], the MIC in assay [21] is at least 122 µM.
Turning to `CC(C)C[C@H](NC(=O)[C@H](CC(C)C)NC(=O)[C@H](CCCN=C(N)N)NC(=O)[C@H](Cc1cnc[nH]1)NC(=O)[C@@H](NC(=O)[C@H](CCCN=C(N)N)NC(=O)CNC(=O)[C@@H](NC(=O)[C@@H]1CCCN1)C(C)C)C(C)C)C(=O)N[C@@H](CCCN=C(N)N)C(=O)N[C@@H](CCCCN)C(=O)O` [PVGRVHRLLRK], the MIC in the assay on Streptococcus pneumoniae is at least 48.1 µM; in the assay on Pseudomonas putida it was at least 48.1 µM; with Salmonella typhimurium it was 24 µM (≈ 32 µg/mL); against Staphylococcus aureus, 48.1 µM (≈ 64 µg/mL); against Escherichia coli it was 24 µM (≈ 32 µg/mL); with Serratia marcescens it was at least 48.1 µM. Besides, the MIC against Saccharomyces cerevisiae is at least 96.2 µM; against Streptococcus mutans, 24 µM (≈ 32 µg/mL); with Bacillus subtilis, 24 µM (≈ 32 µg/mL); in the assay on Candida albicans, 48.1 µM (≈ 64 µg/mL); against Cryptococcus neoformans, at least 96.2 µM.
Take `NCC(=O)N[C@@H](CCCN=C(N)N)C(=O)N[C@@H](CCCN=C(N)N)C(=O)NCC(=O)NCC(=O)N[C@@H](CCCN=C(N)N)C(=O)NCC(=O)NCC(=O)N[C@@H](CCCN=C(N)N)C(=O)NCC(=O)N[C@@H](CCCN=C(N)N)C(=O)NCC(=O)N[C@@H](CCCN=C(N)N)C(=O)O` [GRRGGRGGRGRGR]: the MIC in [10] is over 23.6 µM; in [11], over 23.6 µM; in assay [12], over 23.6 µM; in assay [13] it was over 23.6 µM; in assay [14], 23.6 µM (≈ 32 µg/mL); in assay [15], over 23.6 µM. In assay [16], this compound came in with an MIC of 23.6 µM (≈ 32 µg/mL).
`CC[C@H](C)[C@H](NC(=O)[C@@H]1CCCN1C(=O)[C@H](Cc1c[nH]c2ccccc12)NC(=O)[C@H](CCCN=C(N)N)NC(=O)[C@H](Cc1ccccc1)NC(=O)[C@@H](N)CCCN=C(N)N)C(=O)N[C@@H](CCCN=C(N)N)C(=O)N[C@@H](CCCN=C(N)N)C(=O)N[C@@H](CCCN=C(N)N)C(=O)N1CCC[C@H]1C(=O)N[C@H](C(=O)N[C@@H](CCCN=C(N)N)C(=O)N1CCC[C@H]1C(=O)N1CCC[C@H]1C(=O)N[C@@H](Cc1c[nH]c2ccccc12)C(=O)N[C@@H](Cc1ccc(O)cc1)C(=O)N[C@@H](CCCN=C(N)N)C(=O)O)[C@@H](C)CC` [RFRWPIRRRPIRPPWYR] returned an MIC with Escherichia coli BW25113 of 4 µM (≈ 9.64 µg/mL).
For the compound `CC[C@H](C)[C@H](N)C(=O)N[C@@H](CC(C)C)C(=O)N[C@@H](CCCCN)C(=O)N[C@@H](Cc1c[nH]c2ccccc12)C(=O)N[C@@H](CCCCN)C(=O)N[C@H](C(=O)N[C@@H](Cc1ccccc1)C(=O)N[C@@H](CCCCN)C(=O)N[C@@H](Cc1c[nH]c2ccccc12)C(=O)N[C@@H](CCCCN)C(=O)N[C@@H](Cc1c[nH]c2ccccc12)C(=O)N[C@@H](Cc1ccccc1)C(=O)N[C@@H](CCCN=C(N)N)C(N)=O)[C@@H](C)CC` [ILKWKIFKWKWFR], the minimal inhibitory concentration (MIC) is 11.3 µM (≈ 21.3 µg/mL) in assay [2], 4 µM (≈ 7.51 µg/mL) in assay [4], at least 32 µM in assay [5] and 2 µM (≈ 3.76 µg/mL) in [9].
